Measured values reported in patent US10413541B2, “Oxabicycloheptanes and oxabicycloheptenes for the treatment of depressive and stress disorders” (LIXTE BIOTECHNOLOGY, INC., priority 2015, dated 2019).

What was measured:
LHb neurons [1] = test: Current-clamp excitability (evoked action potentials, input-output curve) of LHb neurons in slices; format: cell-based, mice; conditions: LB100 0.1 μM in the bath
Experimental: Animals were anesthetized with Ketamine/Xylazine (50 mg/10 mg Kg-1 i.p.; Sigma-Aldrich, France). The preparation of LHb-containing brain slices was done in bubbled ice-cold 95% O2/5% CO2-equilibrated solution containing (in mM): cholineCl 110; glucose 25; NaHCO3 25; MgCl2 7; ascorbic acid 11.6; Na+-pyruvate 3.1; KCl 2.5; NaH2PO4 1.25; CaCl2 0.5. Sagittal slices (250 μm) were stored at room temperature in 95% O2/5% CO2-equilibrated artificial cerebrospinal fluid (ACSF) containing (in mM): NaCl 124; NaHCO3 26.2; glucose 11; KCl 2.5; CaCl2 2.5; MgCl2 1.3; NaH2PO4 1. Recordings (flow rate of 2.5 ml/min) were made under an Olympus-BX51 microscope (Olympus, France) at 32° C. Currents were amplified, filtered at 5 kHz and digitized at 20 kHz. Access resistance was monitored by a step of −4 mV (0.1 Hz). Experiments were discarded if the access resistance increased more than 20%.
The internal solution to measure GABAB-GIRK currents and neuronal excitability contained 140 mM potassium gluconate, 4 mM NaCl, 2 mM MgCl2, 1.1 mM EGTA, 5 mM HEPES, 2 mM Na2ATP, 5 mM sodium creatine phosphate, and 0.6 mM Na3GTP (pH 7.3), with KOH. When we measured the synaptic inhibitory or excitatory release the internal solution contained (in mM): CsCl 130; NaCl 4; MgCl2 2; EGTA 1.1; HEPES 5; Na2ATP 2; Na+-creatine-phosphate 5; Na3GTP 0.6, and spermine 0.1. The liquid junction potential was −3 mV. For cell-attached recordings the internal solution consisted in ACSF.
(§1) For the Okadaic acid (OA) and the CaMKII inhibitor KN93 experiments, respectively 100 nM of OA or 10 μM of KN93 were added in the internal solution. For the PP2A inhibitor LB100 experiments, LB100 (0.1 μM) was applied in the bath. Miniature excitatory postsynaptic currents (mEPSCs) were recorded in voltage-clamp mode at −60 mV in presence of bicuculine (10 μM) and TTX (1 μM). Miniature inhibitory postsynaptic currents (mIPSCs) were recorded (−60 mV) in presence of NBQX (20 μM) and TTX (1 μM). EPSCs and IPSCs were evoked through an ACSF filled monopolar glass electrode placed 200 μm from the recording site in the stria medullaris. AMPA:NMDA ratios of evoked-EPSC were obtained by AMPA-EPSC −60 mV/NMDA-EPSCs at +40 mV. Rectification Index (RI) was computed by […]-60/AMPA-EPSC+40. For the experiments in which high-frequency stimulation trains were used to determine presynaptic release probability, QX314 (5 mM) was included in the internal solution to prevent the generation of sodium spikes. Current-clamp experiments, were performed by a series of current steps (negative to positive) injected to induce action potentials (5-10 pA injection current per step, 800 ms).

LHb neurons [2] = test: In vivo LB100 treatment after FsE, LHb neuronal excitability (input-output curve) in slices; parameters: species or system mice; conditions: LB100 1.5 mg/kg ip 6-8 h after FsE
Experimental: The inescapable shock procedure was previously described in Stamatakis and Stuber 2012. Briefly, we placed mice into standard mouse behavioral chambers (Imetronics) equipped with a metal grid floor. We let them to habituate at the new environment for 5 m. In a 20 m session animals received either 19 or 0 unpredictable foot shocks (1 mA, 500 ms) with an interstimulus interval of 30, 60 or 90 s. We anesthetized mice for patch-clamp electrophysiology 1 h, 24 h, 7 d, 14 d or 30 d after the session ended.
as §1
For LB treatment experiments, mice were injected with LB (1.5 mg/Kg i.p.) or saline 6-8 hours after the FsE. The effects of the treatment on the LHb excitability and GABAB-GIRKs currents as well as the behavioural assay were assessed at day 1 or 7. For both electrophysiology and behaviour once treated the animal were housed in groups of 4-6 and let undisturbed until the day of the test.

## CN1CCN(C(=O)C2C(C(=O)O)[C@H]3CC[C@@H]2O3)CC1 (stereo partly drawn) [LB100]
LHb neurons [1]
  FsE-induced hyperexcitability of LHb neurons (input-output curve, CTRL vs FsE): completely abolished
LHb neurons [1]; listed as LB-100
  FsE-induced hyperexcitability of LHb neurons (input-output curve, CTRL vs FsE): comparable to control conditions
LHb neurons [2]; 7 days after, 1.5 mg/kg
  LHb neuronal excitability, input-output curve CTRL vs FsE: able to abolish the increase in excitability
LHb neurons [2]; 7 days after, listed as LB-100, 1.5 mg/kg
  LHb neuronal excitability, input-output curve CTRL vs FsE: normalized
LHb neurons [2]; one day after, 1.5 mg/kg
  LHb neuronal excitability, input-output curve CTRL vs FsE: did not show any difference
LHb neurons [2]; one day after, listed as LB-100, 1.5 mg/kg
  LHb neuronal excitability, input-output curve CTRL vs FsE: normalized
